From PubChem BioAssay AID328 (DTP/NCI, 2004)
Several values for one entry are separate records, joined by “and”; a condition that tells them apart may be missing. Identical values can stand only once. Inconclusive results and toxic doses are left out.

Test system: BDF1 mice, P388 leukemia ip, median survival T/C
Assay: NCI In Vivo Anticancer Drug Screen. Data for tumor model P388 Leukemia (intraperitoneal) in B6D2F1 (BDF1) mice
Settings: endpoint: median survival time, higher = longer survival
Method in brief: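 Mice carrying the transplantable tumour receive compound or vehicle. Survival is followed in each arm, and the treated measure is divided by the vehicle measure.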

[1] = dose: 25.0 mg/kg/injection, schedule: Q01DX009 (ip), vehicle: saline
[2] = dose: 50.0 mg/kg/injection, schedule: Q01DX009 (ip), vehicle: saline
[3] = dose: 100.0 mg/kg/injection, schedule: Q01DX009 (ip), vehicle: saline
[4] = dose: 200.0 mg/kg/injection, schedule: Q01DX009 (ip), vehicle: saline with Tween-80
[5] = dose: 200.0 mg/kg/injection, schedule: Q04DX003 (ip), vehicle: saline
[6] = dose: 100.0 mg/kg/injection, schedule: Q04DX003 (ip), vehicle: Klucel (hydroxypropylcellulose) (HPC)
[7] = dose: 50.0 mg/kg/injection, schedule: Q01DX009 (ip), vehicle: saline with Tween-80
[8] = dose: 100.0 mg/kg/injection, schedule: Q01DX009 (ip), vehicle: saline with Tween-80
[9] = dose: 100.0 mg/kg/injection, schedule: Q04DX003 (ip), vehicle: saline with Tween-80
[10] = dose: 200.0 mg/kg/injection, schedule: Q04DX003 (ip), vehicle: saline with Tween-80
[11] = dose: 400.0 mg/kg/injection, schedule: Q04DX003 (ip), vehicle: saline with Tween-80
[12] = dose: 400.0 mg/kg/injection, schedule: Q01DX009 (ip), vehicle: saline with Tween-80

O=c1[nH]c(=O)n(C2CC(O)C(CO)O2)cc1F (stereo not given)
T/C (dose: 5.0 mg/kg/injection, schedule: Q01DX010 (ip), vehicle: saline): 113 % of control | T/C (dose: 15.0 mg/kg/injection, schedule: Q03HX024 (ip), vehicle: saline): 172 % of control | T/C (dose: 22.0 mg/kg/injection, schedule: Q03HX024 (ip), vehicle: saline): 186 % of control | T/C [1]: 186 % of control | T/C (dose: 33.0 mg/kg/injection, schedule: Q01DX009 (ip), vehicle: saline): 173 % of control | T/C (dose: 34.0 mg/kg/injection, schedule: Q03HX024 (ip), vehicle: saline): 200 % of control | T/C (dose: 40.0 mg/kg/injection, schedule: Q01DX009 (ip), vehicle: water): 168 % of control and 172 % of control and 200 % of control | T/C (dose: 44.0 mg/kg/injection, schedule: Q01DX009 (ip), vehicle: saline): 166 % of control | T/C (dose: 49.0 mg/kg/injection, schedule: Q01DX009 (ip), vehicle: saline): 202 % of control | T/C [2]: 218 % of control | T/C (dose: 50.0 mg/kg/injection, schedule: Q03HX024 (ip), vehicle: saline): 215 % of control | T/C (dose: 60.0 mg/kg/injection, schedule: Q01DX009 (ip), vehicle: water): 190 % of control (2×) and 195 % of control | T/C (dose: 67.0 mg/kg/injection, schedule: Q01DX009 (ip), vehicle: saline): 185 % of control | T/C (dose: 73.0 mg/kg/injection, schedule: Q01DX009 (ip), vehicle: saline): 202 % of control | T/C (dose: 74.0 mg/kg/injection, schedule: Q01DX009 (ip), vehicle: saline): 169 % of control and 183 % of control and 186 % of control | T/C (dose: 80.0 mg/kg/injection, schedule: Q01DX009 (ip), vehicle: water): 190 % of control and 200 % of control and 222 % of control | T/C [3]: 109 % of control and 206 % of control | T/C (dose: 155.0 mg/kg/injection, schedule: Q04DX004 (ip), vehicle: saline): 157 % of control | T/C (dose: 165.0 mg/kg/injection, schedule: Q01DX009 (ip), vehicle: saline): 109 % of control | T/C (dose: 205.0 mg/kg/injection, schedule: Q01DX001 (ip), vehicle: saline): 124 % of control | T/C (dose: 233.0 mg/kg/injection, schedule: Q04DX004 (ip), vehicle: saline): 170 % of control | T/C (dose: 350.0 mg/kg/injection, schedule: Q04DX004 (ip), vehicle: saline): 190 % of control | T/C (dose: 525.0 mg/kg/injection, schedule: Q04DX004 (ip), vehicle: saline): 110 % of control | T/C (dose: 685.0 mg/kg/injection, schedule: Q01DX001 (ip), vehicle: saline): 157 % of control | T/C (dose: 1025.0 mg/kg/injection, schedule: Q01DX001 (ip), vehicle: saline): 172 % of control

COc1ccc(CCN2COc3ccc4ccc(=O)oc4c3C2)cc1OC
T/C (dose: 132.0 mg/kg/injection, schedule: Q01DX009 (ip), vehicle: saline with Tween-80): 100 % of control | T/C [4]: 115 % of control | T/C (dose: 300.0 mg/kg/injection, schedule: Q01DX009 (ip), vehicle: saline with Tween-80): 115 % of control

CC(C)[CH2][Sn]([CH2]C(C)C)([CH2]C(C)C)[C](C)(C)C
T/C (dose: 100.0 mg/kg/injection, schedule: Q04DX003 (ip), vehicle: saline): 103 % of control | T/C [5]: 112 % of control | T/C (dose: 400.0 mg/kg/injection, schedule: Q04DX003 (ip), vehicle: saline): 112 % of control

CC[As](=O)(O)CC
T/C [2]: 103 % of control | T/C (dose: 50.0 mg/kg/injection, schedule: Q04DX003 (ip), vehicle: saline): 100 % of control | T/C [3]: 100 % of control and 108 % of control | T/C (dose: 132.0 mg/kg/injection, schedule: Q01DX009 (ip), vehicle: saline): 95 % of control | T/C [5]: 108 % of control

NC(=S)Nc1cccc(Cl)c1
T/C (dose: 25.0 mg/kg/injection, schedule: Q04DX003 (ip), vehicle: Klucel (hydroxypropylcellulose) (HPC)): 118 % of control | T/C (dose: 50.0 mg/kg/injection, schedule: Q04DX003 (ip), vehicle: Klucel (hydroxypropylcellulose) (HPC)): 104 % of control | T/C [6]: 104 % of control

OCCOc1c(Cl)cc(Cl)cc1Cl
T/C [7]: 100 % of control | T/C [8]: 100 % of control | T/C [9]: 113 % of control | T/C [4]: 100 % of control | T/C [10]: 100 % of control

COC(OC)c1[nH]c(=S)[nH]c(=O)c1Cc1c(Cl)cccc1Cl
T/C [9]: 104 % of control | T/C [10]: 104 % of control | T/C [11]: 100 % of control

COc1ccc(C2(C#N)CCCC2)cc1
T/C [8]: 100 % of control | T/C [4]: 108 % of control | T/C [12]: 108 % of control

c1ccc2c(c1)OCCOCCOc1ccccc1OCCOCCO2
T/C (dose: 4.69 mg/kg/injection, schedule: Q01DX009 (ip), vehicle: saline with Tween-80): 100 % of control | T/C (dose: 9.38 mg/kg/injection, schedule: Q01DX009 (ip), vehicle: saline with Tween-80): 90 % of control | T/C (dose: 18.7 mg/kg/injection, schedule: Q01DX009 (ip), vehicle: saline with Tween-80): 90 % of control | T/C [9]: 100 % of control | T/C (dose: 150.0 mg/kg/injection, schedule: Q01DX009 (ip), vehicle: saline with Tween-80): 89 % of control | T/C [10]: 100 % of control | T/C [11]: 105 % of control

C#CCOCC(CCl)OC(=O)Nc1ccccc1 (stereo not given)
T/C [1]: 95 % of control | T/C [2]: 104 % of control | T/C (dose: 50.0 mg/kg/injection, schedule: Q04DX003 (ip), vehicle: saline with Tween-80): 87 % of control | T/C [3]: 104 % of control | T/C [9]: 95 % of control | T/C (dose: 200.0 mg/kg/injection, schedule: Q01DX009 (ip), vehicle: saline): 109 % of control | T/C [11]: 100 % of control

CCN(c1ccc2c(c1)C(=O)c1ccccc1-2)S(=O)(=O)c1ccc(C)cc1
T/C [6]: 100 % of control | T/C (dose: 200.0 mg/kg/injection, schedule: Q04DX003 (ip), vehicle: Klucel (hydroxypropylcellulose) (HPC)): 104 % of control | T/C (dose: 400.0 mg/kg/injection, schedule: Q04DX003 (ip), vehicle: Klucel (hydroxypropylcellulose) (HPC)): 95 % of control

O=C(c1ccccc1)C1CC1c1ccccc1 (stereo not given)
T/C (dose: 100.0 mg/kg/injection, schedule: Q01DX001 (ip), vehicle: Klucel (hydroxypropylcellulose) (HPC)): 120 % of control | T/C (dose: 200.0 mg/kg/injection, schedule: Q01DX001 (ip), vehicle: Klucel (hydroxypropylcellulose) (HPC)): 104 % of control | T/C (dose: 400.0 mg/kg/injection, schedule: Q01DX001 (ip), vehicle: Klucel (hydroxypropylcellulose) (HPC)): 100 % of control

CCN(CC)Cc1cc(Nc2c3ccccc3nc3cc(Cl)ccc23)ccc1O
T/C (dose: 12.5 mg/kg/injection, schedule: Q01DX009 (ip), vehicle: saline): 100 % of control | T/C (dose: 12.5 mg/kg/injection, schedule: Q04DX003 (ip), vehicle: saline sonified): 104 % of control | T/C [1]: 100 % of control | T/C (dose: 25.0 mg/kg/injection, schedule: Q04DX003 (ip), vehicle: saline sonified): 100 % of control | T/C (dose: 50.0 mg/kg/injection, schedule: Q04DX003 (ip), vehicle: saline sonified): 104 % of control

COc1ccc(NC(=O)Nc2c(Oc3ccc(Cl)cc3)ccc(Cl)c2S(=O)(=O)O)cc1Cl
T/C [1]: 109 % of control | T/C [2]: 86 % of control | T/C [3]: 104 % of control

O=[N+]([O-])c1ccc(N2CCCCCC2)c2c1no[n+]2[O-]
T/C (dose: 15.0 mg/kg/injection, schedule: Q01DX009 (ip), vehicle: saline with Tween-80): 90 % of control | T/C (dose: 30.0 mg/kg/injection, schedule: Q01DX009 (ip), vehicle: saline with Tween-80): 95 % of control | T/C (dose: 60.0 mg/kg/injection, schedule: Q01DX009 (ip), vehicle: saline with Tween-80): 95 % of control

COB1OB(OC)OB(OC)O1
T/C [8]: 104 % of control | T/C [9]: 100 % of control | T/C [4]: 100 % of control | T/C [10]: 100 % of control | T/C [12]: 109 % of control | T/C [11]: 100 % of control

O=C1NC(=O)C(CSCc2ccccc2)(CSCc2ccccc2)N1
T/C (dose: 3.12 mg/kg/injection, schedule: Q04DX003 (ip), vehicle: saline with Tween-80): 101 % of control | T/C (dose: 6.25 mg/kg/injection, schedule: Q04DX003 (ip), vehicle: saline with Tween-80): 102 % of control | T/C (dose: 12.5 mg/kg/injection, schedule: Q04DX003 (ip), vehicle: saline with Tween-80): 99 % of control | T/C (dose: 25.0 mg/kg/injection, schedule: Q01DX009 (ip), vehicle: saline with Tween-80): 99 % of control | T/C (dose: 25.0 mg/kg/injection, schedule: Q04DX003 (ip), vehicle: saline with Tween-80): 98 % of control | T/C [7]: 107 % of control | T/C [8]: 92 % of control | T/C [12]: 86 % of control
